For 10 compounds, Relative activity results are on record in ChEMBL document CHEMBL1132679, “Highly increased cellular accumulation of vincristine, a useful hydrophobic antitumor-drug, in multidrug-resistant solid cancer cells induced by a simply reduced taxinine” (1999).

The assay can be described thus: Relative activity on the cellular accumulation of vincristine in multidrug-resistant (MDR) human ovarian cancer 2780AD cells. Type of assay: functional, A2780 ADR.
Take `CC(=O)O[C@H]1[C@@H]2[C@H](C)[C@@H](OC(=O)CCc3ccccc3)CC[C@@]2(C)[C@@H](OC(C)=O)[C@H](OC(C)=O)C2=C(C)C(=O)C[C@@H]1C2(C)C`: the Relative activity was found to be 44.
As for `C=C1[C@@H](OC(=O)CCC2CCCCC2)CC[C@@]2(C)[C@@H](OC(C)=O)[C@H](OC(C)=O)C3=C(C)C(=O)C[C@@H]([C@@H](OC(C)=O)[C@H]12)C3(C)C`, the Relative activity came out at 97.
Under `C=C1[C@@H](OC(=O)CCc2ccccc2)CC[C@@]2(C)[C@@H](OC(C)=O)[C@H](OC(C)=O)C3=C(C)C(=O)C[C@@H]([C@@H](OC(C)=O)[C@H]12)C3(C)C` stands 227; under `C=C1[C@@H](OC(C)=O)CC[C@@]2(C)[C@@H](OC(C)=O)[C@H](OC(C)=O)C3=C(C)C(=O)C[C@@H]([C@@H](OC(C)=O)[C@H]12)C3(C)C`, 93; under `C=C1[C@@H](OC(=O)/C=C/c2ccccc2)CC[C@@]2(C)[C@@H](OC(C)=O)[C@H](OC(C)=O)C3=C(C)C(=O)C[C@@H]([C@@H](OC(C)=O)[C@H]12)C3(C)C`, 77.
Then `CC(=O)O[C@H]1[C@@H]2[C@H](C)[C@@H](OC(=O)/C=C/c3ccccc3)CC[C@@]2(C)[C@@H](OC(C)=O)[C@H](OC(C)=O)C2=C(C)C(=O)C[C@@H]1C2(C)C`, with 44.
Then `CC(=O)O[C@H]1[C@@H]2[C@H](C)[C@@H](O)CC[C@@]2(C)[C@@H](OC(C)=O)[C@H](OC(C)=O)C2=C(C)C(=O)C[C@@H]1C2(C)C`, with 48; and `C=C1[C@@H](OCOCc2ccccc2)CC[C@@]2(C)[C@@H](OC(C)=O)[C@H](OC(C)=O)C3=C(C)C(=O)C[C@@H]([C@@H](OC(C)=O)[C@H]12)C3(C)C`, with 158; and `C=C1[C@@H](O)CC[C@@]2(C)[C@@H](OC(C)=O)[C@H](OC(C)=O)C3=C(C)C(=O)C[C@@H]([C@@H](OC(C)=O)[C@H]12)C3(C)C` [TAXININE A], with 64.
`COc1ccc(CCN(C)CCCC(C#N)(c2ccc(OC)c(OC)c2)C(C)C)cc1OC` (stereo not given) [VERAPAMIL] yielded a Relative activity of 100.
